The values below come from patent publication US20030013761A1, “Use of fumaric acid derivatives for treating mitochondrial diseases” (priority 2000, published 2003).

Where a name gives a salt, the structure may show the parent alone.

T1 sequence (P31040 43-664): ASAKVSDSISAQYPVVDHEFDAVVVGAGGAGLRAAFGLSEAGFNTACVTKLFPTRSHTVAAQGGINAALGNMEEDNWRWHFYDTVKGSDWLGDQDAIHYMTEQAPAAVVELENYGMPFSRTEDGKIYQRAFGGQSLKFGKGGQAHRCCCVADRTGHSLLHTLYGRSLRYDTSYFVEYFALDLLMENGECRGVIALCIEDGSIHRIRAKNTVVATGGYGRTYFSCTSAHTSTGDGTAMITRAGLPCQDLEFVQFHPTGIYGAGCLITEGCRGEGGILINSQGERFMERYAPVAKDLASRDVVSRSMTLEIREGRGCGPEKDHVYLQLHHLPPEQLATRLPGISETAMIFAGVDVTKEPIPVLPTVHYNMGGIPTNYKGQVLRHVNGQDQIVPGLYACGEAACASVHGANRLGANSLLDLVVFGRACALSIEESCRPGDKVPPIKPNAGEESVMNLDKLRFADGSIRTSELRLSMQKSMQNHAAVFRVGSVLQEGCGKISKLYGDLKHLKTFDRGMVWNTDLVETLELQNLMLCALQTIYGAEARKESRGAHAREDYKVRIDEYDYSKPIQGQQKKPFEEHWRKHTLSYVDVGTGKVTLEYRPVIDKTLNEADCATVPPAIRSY
T1 sequence (P21912 29-280 partner): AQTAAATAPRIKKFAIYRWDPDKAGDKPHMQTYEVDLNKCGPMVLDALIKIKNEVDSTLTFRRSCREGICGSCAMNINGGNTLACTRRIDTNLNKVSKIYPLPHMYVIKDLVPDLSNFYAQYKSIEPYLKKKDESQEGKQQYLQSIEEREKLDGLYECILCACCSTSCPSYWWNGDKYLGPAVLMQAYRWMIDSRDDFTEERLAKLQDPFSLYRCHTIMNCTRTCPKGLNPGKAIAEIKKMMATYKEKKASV
T1 sequence (Q99643 30-169 partner): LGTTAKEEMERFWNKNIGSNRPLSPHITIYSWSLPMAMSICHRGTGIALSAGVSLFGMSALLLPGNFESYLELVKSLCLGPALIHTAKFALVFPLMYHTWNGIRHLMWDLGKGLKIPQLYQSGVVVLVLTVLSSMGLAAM
T1 sequence (O14521 57-159 partner): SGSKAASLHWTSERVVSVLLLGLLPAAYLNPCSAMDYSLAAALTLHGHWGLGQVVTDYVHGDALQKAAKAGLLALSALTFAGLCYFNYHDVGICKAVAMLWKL

This assay concerns the target T1, succinate dehydrogenase (Homo sapiens, UniProt P31040).
T1 construct: Fibroblasts [0.75 m Val/I]; endogenous in cells
Briefly: Stimulating influence of fumaric acid derivatives on the enzyme activity of succinate dehydrogenase in fibroblasts. To be noted: Fibroblasts [0.75 m Val/I]. Type of assay: cell-based. From the text: Succinate dehydrogenase is part of the mitochondrial membrane and catalyses the […] of succinic acid to fumaric acid within the citrate cycle. Hydrogen is passed to the respiratory chain via the electron transfer flavoprotein. Thus, the activity of succinate dehydrogenase may influence the electron flow of the electron transport chain. The latter, in turn, is linked to the process of oxidative phosphorylation, the malfunction of which is considered a cause for mitochondrial diseases. Consequently, the activity of succinate dehydrogenase may also have an effect on oxidative phosphorylation.
In the case of `CCOC(=O)/C=C/C(=O)[O-].[Ca+]` [Calcium monoethyl fumarate], the “evaluation of the stimulating influence on the enzyme activity of succinate dehydrogenase (grade in words)” value (from here on “evaluation of the stimulating influence”) is “medium”.

In the case of `COC(=O)/C=C/C(=O)OC` [Dimethyl fumarate], the “evaluation of the stimulating influence” value is listed as “strong” and the “stimulation of the enzyme activity of succinate dehydrogenase (percent in brackets)” value is 838%.

In the case of `CCOC(=O)/C=C/C(=O)[O-].[Mg+]` [Magnesium monoethyl fumarate], the “evaluation of the stimulating influence” value was “weak”.

Turning to `CCOC(=O)/C=C/C(=O)O` [Monoethyl fumarate], the “evaluation of the stimulating influence” value is “weak”.

With `CCOC(=O)/C=C/C(=O)[O-].[Zn+]` [Zinc monoethyl fumarate], the “evaluation of the stimulating influence” value is “strong” and the “stimulation of the enzyme activity of succinate dehydrogenase (percent in brackets)” value is given as 107%.
